Source: US7691584B2, “Screening of compounds for OCT3 transporter activity” (XenoPort, Inc., priority 2005, dated 2010)
Each block holds one molecule with its values, some of them ahead of it.

How the values were obtained:
[1] = target: T1, hOCT3 (Homo sapiens, UniProt O75751); assay: hOCT3 direct uptake assay (LC-MS-MS, CHO-TREx-hOCT3 cells); details: specific uptake (induced minus non-induced)
[2] = target: T1, hOCT3; assay: hOCT3 competition uptake assay (3H-MPP uptake into CHO-TREx-hOCT3 cells)
[3] = target: T2, PgP (Homo sapiens, UniProt P08183); assay: Transwell monolayer efflux assay, MDCK cells with TREx-PgP; format: cell-based; details: 2.5 nM 3H-vinblastine, in the presence of 250 μM verapamil
T2 construct: expressed in transfected cells; host or cells: MDCK cells transfected with tetracycline-inducible TREx-PgP
T2 sequence (P08183 whole entry): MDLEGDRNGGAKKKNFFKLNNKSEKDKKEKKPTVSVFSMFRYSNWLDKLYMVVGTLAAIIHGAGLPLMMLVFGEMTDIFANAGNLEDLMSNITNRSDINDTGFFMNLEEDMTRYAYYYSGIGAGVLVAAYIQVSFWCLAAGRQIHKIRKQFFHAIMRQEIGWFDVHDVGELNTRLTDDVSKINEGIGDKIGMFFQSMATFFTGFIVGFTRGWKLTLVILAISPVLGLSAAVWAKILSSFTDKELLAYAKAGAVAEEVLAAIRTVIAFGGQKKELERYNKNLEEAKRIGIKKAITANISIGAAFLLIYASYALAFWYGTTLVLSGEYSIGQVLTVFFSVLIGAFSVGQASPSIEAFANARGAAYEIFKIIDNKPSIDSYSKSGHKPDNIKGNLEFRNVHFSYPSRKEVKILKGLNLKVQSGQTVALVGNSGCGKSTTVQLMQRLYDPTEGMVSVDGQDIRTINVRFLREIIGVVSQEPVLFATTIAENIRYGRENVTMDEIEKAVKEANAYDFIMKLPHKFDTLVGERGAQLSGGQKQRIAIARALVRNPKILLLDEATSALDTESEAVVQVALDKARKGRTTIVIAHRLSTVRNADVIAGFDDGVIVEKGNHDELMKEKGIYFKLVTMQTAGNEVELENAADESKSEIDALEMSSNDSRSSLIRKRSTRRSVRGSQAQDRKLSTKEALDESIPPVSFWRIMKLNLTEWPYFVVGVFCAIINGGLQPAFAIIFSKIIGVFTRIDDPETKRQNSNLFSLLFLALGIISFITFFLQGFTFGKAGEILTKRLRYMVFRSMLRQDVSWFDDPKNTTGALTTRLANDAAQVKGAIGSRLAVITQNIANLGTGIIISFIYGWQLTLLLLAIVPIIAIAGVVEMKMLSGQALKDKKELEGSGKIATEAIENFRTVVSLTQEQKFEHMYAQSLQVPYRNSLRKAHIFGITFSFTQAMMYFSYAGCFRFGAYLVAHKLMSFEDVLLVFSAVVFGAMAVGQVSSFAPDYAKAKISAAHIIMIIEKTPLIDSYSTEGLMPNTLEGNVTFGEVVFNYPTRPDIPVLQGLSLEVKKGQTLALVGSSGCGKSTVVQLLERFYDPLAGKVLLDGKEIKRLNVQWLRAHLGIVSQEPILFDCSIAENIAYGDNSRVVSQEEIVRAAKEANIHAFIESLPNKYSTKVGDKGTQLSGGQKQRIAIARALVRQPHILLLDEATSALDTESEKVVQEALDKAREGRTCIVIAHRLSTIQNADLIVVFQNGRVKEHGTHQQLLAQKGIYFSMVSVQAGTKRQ
Method: Transwell monolayer efflux assays can be performed by transfecting MDCK cells with the tetracycline-inducible TREx-PgP expression vector. The cells optionally can be transfected with a nucleic acid encoding the transporter of interest. The transfected cells are seeded on polycarbonate filter membranes in transwell dishes and grown for 3-5 days, yielding a polarized monolayer with tight junctions between cells.

[4] = substrate: NCCc1c[nH]cn1; assay: cells, lysate or membranes; details: other: CHO-TREx-hOCT3 cells, specific uptake (induced minus non-induced)

Direct Uptake Vmax [1]: 4.6 pmol/min/well | IC50 [2]: 150 µM | uptake of labeled MPP with increasing concentration of unlabeled competitor ([2]; cells induced to express OCT3, FIG. 2): decreased
Molecule: NCCc1c[nH]cn1 [Histamine, histamine]

apical to basolateral transport [3]: strongly increased | basolateral to apical transport [3]: strongly decreased
Molecule: CC[C@]1(O)C[C@@H]2CN(CCc3c([nH]c4ccccc34)[C@@](C(=O)OC)(c3cc4c(cc3OC)N(C)[C@H]3[C@@](O)(C(=O)OC)[C@H](OC(C)=O)[C@]5(CC)C=CCN6CC[C@]43[C@@H]65)C2)C1 [^3H-vinblastine, vinblastine]

B1: hOCT3 (Homo sapiens) (protein)
chain: MPSFDEALQRVGEFGRFQRRVFLLLCLTGVTFAFLFVGVVFLGTQPDHYWCRGPSAAALAERCGWSPEEEWNRTAPASRGPEPPERRGRCQRYLLEAANDSASATSALSCADPLAAFPNRSAPLVPCRGGWRYAQAHSTIVSEFDLVCVNAWMLDLTQAILNLGFLTGAFTLGYAADRYGRIVIYLLSCLGVGVTGVVVAFAPNFPVFVIFRFLQGVFGKGTWMTCYVIVTEIVGSKQRRIVGIVIQMFFTLGIIILPGIAYFIPNWQGIQLAITLPSFLFLLYYWVVPESPRWLITRKKGDKALQILRRIAKCNGKYLSSNYSEITVTDEEVSNPSFLDLVRTPQMRKCTLILMFAWFTSAVVYQGLVMRLGIIGGNLYIDFFISGVVELPGALLILLTIERLGRRLPFAASNIVAGVACLVTAFLPEGIAWLRTTVATLGRLGITMAFEIVYLVNSELYPTTLRNFGVSLCSGLCDFGGIIAPFLLFRLAAVWLELPLIIFGILASICGGLVMLLPETKGIALPETVDDVEKLGSPHSCKCGRNKKTPVSRSHL
Km [4]: 110 µM
